In US8192719B2, “Methods and kits to diagnose growth hormone deficiency by oral administration of EP 1572 or EP 1573 compounds” (Aeterna Zentaris GmbH, priority 2006, dated 2012):
Read-outs that look alike come from different tables or passages of the source.

Assay: pharmacokinetic profile of EP 1572 after oral administration in healthy male subjects
Assay type: in vivo
Conditions: human, plasma EP 1572, oral, mean ± SEM; for AUC(0-t): read-out: AUC (0-300) (converted)
Protocol: After a provocative test with EP 1572, the pharmacokinetic profile of EP 1572 and the level of GH released in response to its oral administration were established in 36 healthy male subjects at various doses.
From the subject a blood sample was drawn at 30 and 15 minutes before the administration of EP 1572. A sample of blood was taken from the subject immediately before the aqueous formulation containing 0.5 mg/kg of EP 1572 was orally administered to the subject. Further blood samples were taken from the subject at 15, 30, 60, 90, 120, 150, 180, 210, 240, 270 and 300 minutes from administration and a portion of each sample processed according to the assay protocol outlined below. The level of GH present in each sample was determined by the assay method outlined below and the peak concentration (Cmax) for the subject determined. The remainder of the sample was used to determine the level of EP 1572 present in the systemic circulation (as outlined below).
The organic components in human plasma were extracted using a total of […] of an ethyl acetate/iso-propanol mixture (82.5% and 17.5%, respectively). […] Quantification was performed with EP 1573 as an internal standard (peak area ratio evaluation).
Further dosing studies were carried out wherein the subjects were administered doses of 0.005, 0.05, 0.25 and 0.125 mg/kg each, using the formulations described above.

Cmax (0.05 mg/kg): 0.86 ± 0.24 ng/mL
Tmax (0.05 mg/kg): 75 min
AUC(0-t) (0.05 mg/kg): 1.74 ng·h/mL
Cmax (0.125 mg/kg): 2.33 ± 0.39 ng/mL
Tmax (0.125 mg/kg): 62.5 min
AUC(0-t) (0.125 mg/kg): 5.35 ng·h/mL
Cmax (0.25 mg/kg): 3.92 ± 0.57 ng/mL
Tmax (0.25 mg/kg): 55 min
AUC(0-t) (0.25 mg/kg): 8.67 ng·h/mL
Cmax (0.5 mg/kg): 7.59 ± 0.83 ng/mL
Tmax (0.5 mg/kg): 50 min
AUC(0-t) (0.5 mg/kg): 16.1 ng·h/mL
Compound: CC(C)(N)C(=O)N[C@H](Cc1c[nH]c2ccccc12)C(=O)N[C@H](Cc1c[nH]c2ccccc12)NC=O [EP 1572, H-Aib-D-Trp-D-gTrp-CHO]
